The values below come from patent publication US9212391B2, “Method for determining DNA fragmentation in microorganisms” (Universidad Autonoma de Madrid, priority 2006, dated 2015).

The test system of experiment [1] is Escherichia coli strain TG1 (sensitive strain). The conditions noted are these: for Vital Stain Empty Capsules, Sensitive Strain: 40 minutes.
Experiment [2] has the same test system. In words: DNA fragmentation / DNA damage level by the process of the invention (microgel, lysis, SYBR Gold). Conditions: for DNA damage (in words): 300 micrograms/ml.
The test system of experiment [3] is Escherichia coli strain sensitive (TG1). In words: Growth inhibition MIC (commercial test), sensitive strain. The class given is cell-based. Conditions: read-out: minimum inhibitory concentration (MIC) of growth.
Experiment [4] relates to Escherichia coli strain resistant to ciprofloxacin. In words: Growth inhibition MIC (commercial test), resistant strain. Format: cell-based. Conditions: maximum concentration of the commercial test.
Experiment [5] has the same test system. The conditions noted are these: 40 minutes, LB medium.
Setting [6] is: 300 μg/ml, 40 min, exponential phase in LB medium.

Converted amounts (≈) assume the structure as drawn. “Also recorded” adds a separate entry of the source. Where two headings read alike, the source gives them in different places.

With gentamicin, in experiment [1] (setting [6]), the “Vital Stain Empty Capsules” value is listed as 0.50% and the “Vital Stain Permeable” value was determined as 10.00%. Besides, the “DNA Fragmentation (percentage of bacteria with fragmented DNA)” value in experiment [2] (setting [6]) was 3.70%.

`CC1(C)S[C@@H]2[C@H](NC(=O)[C@H](N)c3ccccc3)C(=O)N2[C@H]1C(=O)O` [Ampicillin, ampicillin]: the “Vital Stain Empty Capsules” value came out at 5.00% in experiment [1] (setting [6]); 0.67% in experiment [1] (300 micrograms/ml, 20 minutes); 75.97% in experiment [1] (300 micrograms/ml, 24 hours). The “DNA Fragmentation (percentage of bacteria with fragmented DNA)” value in experiment [2] (setting [6]) came to 4.20%. The “DNA damage (in words)” value in experiment [2] (20 minutes) is reported as “differences were not observed with respect to the control; also recorded: DNA fragments are not observed”; in experiment [2] (24 hours), “massive presence of punctiform degraded DNA fragments; also recorded: the bottom is covered with DNA fragments”.

Regarding `O=C(O)c1cn(C2CC2)c2cc(N3CCNCC3)c(F)cc2c1=O` [Ciprofloxacin, ciprofloxacin], the MIC in experiment [3] was 0.012 µg/mL (≈ 0.0362 µM); in experiment [4], more than 32 µg/mL. In addition, the “Vital Stain Empty Capsules, Resistant Strain” value in experiment [5] (0.50 μg/ml) was 0.00%; in experiment [5] (1.00 μg/ml), 0.10%; in experiment [5] (2.50 μg/ml), 0.10%; in experiment [5] (10.00 μg/ml) it was 0.15%. The “Vital Stain Empty Capsules, Sensitive Strain” value in experiment [1] (0.003 μg/ml, exponential growth in LB medium) turned out to be 0.70%; in experiment [1] (0.006 μg/ml, exponential growth in LB medium), 0.76%; in experiment [1] (0.012 μg/ml, exponential growth in LB medium), 1.06%; in experiment [1] (0.100 μg/ml, exponential growth in LB medium), 1.40%; in experiment [1] (0.50 μg/ml, LB medium), 0.05%; in experiment [1] (1.00 μg/ml, LB medium) it was 0.00%. Also, the “Vital Stain Empty Capsules, Sensitive Strain” value is on record as 0.15% in experiment [1] (2.50 μg/ml, LB medium) and 0.48% in experiment [1] (10.00 μg/ml, LB medium). Besides, in experiment [1] (25 μg/ml, 40 min), the “Vital Stain Empty Capsules” value came out at 0.30%. In addition, the “minimum incubation time at which evident DNA damage was detected” value in experiment [2] (1 μg/ml) was determined as 5 min. Besides, the “DNA Fragmentation (percentage of bacteria with fragmented DNA)” value in experiment [2] (25 μg/ml, 40 min) came out at 100.00%. Moreover, the DNA damage level result in experiment [2] (0.006 micrograms/ml, 40 minutes) is “intermediate between level 1 and 2”; in experiment [2] (10 micrograms/ml for 40 minutes, immediately after the treatment (0 min after wash)), 3-4. Moreover, the “minimum time of incubation to detect a minimal effect at DNA level (incl. […] processing)” value in experiment [2] (1 microgram/ml) was determined as 6.5 min. Also, the “size of the bacterial capsules versus the other assayed times” value in experiment [2] (10 micrograms/ml for 40 minutes, then 60 and 90 minutes in ciprofloxacin-free medium, image analysis) was “increases about double”. Further, the “time in antibiotic-free medium at which a statistically significant decrease of the fragment diffusion halo begins to be detected” value in experiment [2] (10 micrograms/ml for 40 minutes, then washed, image analysis, p<0.05) stood at 15 min.

Take `OO` [H2O2, hydrogen peroxide]: in experiment [1] (10 mM, 10 min), the “Vital Stain Empty Capsules” value is 0.30% and the “Vital Stain Permeable” value is given as 5.00%. The “DNA Fragmentation (percentage of bacteria with fragmented DNA)” value in experiment [2] (10 mM, 10 min) is 100.00%. The “DNA fragmentation (in words)” value in experiment [2] (10 mM, 10 minutes) is given as “massive Escherichia coli DNA fragmentation”.
